Source: patent US12227500B2, “Substituted pyrrolo[2,3-b]pyridines for suppressing toxic endoplasmic reticulum stress” (THE TRUSTEES OF COLUMBIA UNIVERSITY IN THE CITY OF NEW YORK, priority 2018, dated 2025)

Columns and labels:
Assay in all cases: Radiolabeled ATP kinase assay, panel of 371 kinases (Table S6)
Type in all cases: biochemical
[1] = biological target: T1, panel of 371 human kinases (Homo sapiens, UniProt Q13555); conditions: CAMK2g; 0.1 μM; 10 μM ATP; read-out: % Enzyme Activity (relative to DMSO controls)
T1 construct: purchased Reaction Biology Corp
Text: (§1) ; FIG. 38C). […]. Further targeted analyses, such as genetic knock-down or knock-out, may be warranted to parse the role of these additional kinases in our model of neurodegeneration.

[2] = biological target: T2, panel of 371 human kinases (Homo sapiens, UniProt P27448); conditions: MARK3; 0.1 μM; 10 μM ATP; read-out: % Enzyme Activity (relative to DMSO controls)
T2 construct: purchased Reaction Biology Corp
Text: as §1

[3] = biological target: T3, panel of 371 human kinases (Homo sapiens, UniProt Q9H3Y6); conditions: SRMS; 0.1 μM; 10 μM ATP; read-out: % Enzyme Activity (relative to DMSO controls)
T3 construct: purchased Reaction Biology Corp
Text: as §1

[4] = biological target: T4, panel of 371 human kinases (Homo sapiens, UniProt P10398); conditions: ARAF; 0.1 μM; 10 μM ATP; read-out: % Enzyme Activity (relative to DMSO controls)
T4 construct: purchased Reaction Biology Corp
Text: as §1

[5] = biological target: T5, panel of 371 human kinases (Homo sapiens, UniProt Q02779); conditions: MLK2/MAP3K10; 0.1 μM; 10 μM ATP; read-out: % Enzyme Activity (relative to DMSO controls)
T5 construct: purchased Reaction Biology Corp
Text: as §1

[6] = biological target: T6, panel of 371 human kinases (Homo sapiens, UniProt O75676); conditions: MSK2/RPS6KA4; 0.1 μM; 10 μM ATP; read-out: % Enzyme Activity (relative to DMSO controls)
T6 construct: purchased Reaction Biology Corp
Text: as §1

[7] = biological target: T7, panel of 371 human kinases (Homo sapiens, UniProt P36894); conditions: ALK1/BMPR1A; 0.1 μM; 10 μM ATP; read-out: % Enzyme Activity (relative to DMSO controls)
T7 construct: purchased Reaction Biology Corp
Text: as §1

[8] = biological target: T8, panel of 371 human kinases (Homo sapiens, UniProt P09769); conditions: FGR; 0.1 μM; 10 μM ATP; read-out: % Enzyme Activity (relative to DMSO controls)
T8 construct: purchased Reaction Biology Corp
Text: as §1

[9] = biological target: T9, panel of 371 human kinases (Homo sapiens, UniProt P04626); conditions: ERBB2/HER2; 0.1 μM; 10 μM ATP; read-out: % Enzyme Activity (relative to DMSO controls)
T9 construct: purchased Reaction Biology Corp
Text: as §1

[10] = biological target: T10, panel of 371 human kinases (Homo sapiens, UniProt Q9Y4K4); conditions: for remaining activity at 0.1 µM: KHS/MAP4K5, 10 μM ATP, read-out: % Enzyme Activity (relative to DMSO controls)
T10 construct: purchased Reaction Biology Corp
Text: as §1

[11] = biological target: T11, panel of 371 human kinases (Homo sapiens, UniProt P49840); conditions: GSK3a; 0.1 μM; 10 μM ATP; read-out: % Enzyme Activity (relative to DMSO controls)
T11 construct: purchased Reaction Biology Corp
Text: as §1

[12] = biological target: T12, panel of 371 human kinases (Homo sapiens, UniProt Q02156); conditions: PKCepsilon; 0.1 μM; 10 μM ATP; read-out: % Enzyme Activity (relative to DMSO controls)
T12 construct: purchased Reaction Biology Corp
Text: as §1

[13] = biological target: T13, panel of 371 human kinases (Homo sapiens, UniProt Q16288); conditions: TRKC; 0.1 μM; 10 μM ATP; read-out: % Enzyme Activity (relative to DMSO controls)
T13 construct: purchased Reaction Biology Corp
Text: as §1

[14] = biological target: T14, panel of 371 human kinases (Homo sapiens, UniProt P78368); conditions: CK1g2; 0.1 μM; 10 μM ATP; read-out: % Enzyme Activity (relative to DMSO controls)
T14 construct: purchased Reaction Biology Corp
Text: as §1

[15] = biological target: T15, panel of 371 human kinases (Homo sapiens, UniProt Q9H792); conditions: PEAK1; 0.1 μM; 10 μM ATP; read-out: % Enzyme Activity (relative to DMSO controls)
T15 construct: purchased Reaction Biology Corp
Text: as §1

[16] = biological target: T16, panel of 371 human kinases (Homo sapiens, UniProt Q5S007); conditions: LRRK2; 0.1 μM; 10 μM ATP; read-out: % Enzyme Activity (relative to DMSO controls)
T16 construct: purchased Reaction Biology Corp
Text: as §1

[17] = biological target: T17, panel of 371 human kinases (Homo sapiens, UniProt P16591); conditions: FER; 0.1 μM; 10 μM ATP; read-out: % Enzyme Activity (relative to DMSO controls)
T17 construct: purchased Reaction Biology Corp
Text: as §1

[18] = biological target: T18, panel of 371 human kinases (Homo sapiens, UniProt P49761); conditions: CLK3; 0.1 μM; 10 μM ATP; read-out: % Enzyme Activity (relative to DMSO controls)
T18 construct: purchased Reaction Biology Corp
Text: as §1

[19] = biological target: T19, panel of 371 human kinases (Homo sapiens, UniProt O95747); conditions: OSR1/OXSR1; 0.1 μM; 10 μM ATP; read-out: % Enzyme Activity (relative to DMSO controls)
T19 construct: purchased Reaction Biology Corp
Text: as §1

[20] = biological target: T20, panel of 371 human kinases (Homo sapiens, UniProt Q86Z02); conditions: HIPK1; 0.1 μM; 10 μM ATP; read-out: % Enzyme Activity (relative to DMSO controls)
T20 construct: purchased Reaction Biology Corp
Text: as §1

[21] = biological target: T21, panel of 371 human kinases (Homo sapiens, UniProt Q13237); conditions: PKG2/PRKG2; 0.1 μM; 10 μM ATP; read-out: % Enzyme Activity (relative to DMSO controls)
T21 construct: purchased Reaction Biology Corp
Text: as §1

[22] = biological target: T22, panel of 371 human kinases (Homo sapiens, UniProt Q6IQ55); conditions: TTBK2; 0.1 μM; 10 μM ATP; read-out: % Enzyme Activity (relative to DMSO controls)
T22 construct: purchased Reaction Biology Corp
Text: as §1

[23] = biological target: T23, panel of 371 human kinases (Homo sapiens, UniProt Q86SG6); conditions: NEK8; 0.1 μM; 10 μM ATP; read-out: % Enzyme Activity (relative to DMSO controls)
T23 construct: purchased Reaction Biology Corp
Text: as §1

[24] = biological target: T24, panel of 371 human kinases (Homo sapiens, UniProt Q9BYP7); conditions: WNK3; 0.1 μM; 10 μM ATP; read-out: % Enzyme Activity (relative to DMSO controls)
T24 construct: purchased Reaction Biology Corp
Text: as §1

T10 sequence (Q9Y4K4 whole entry): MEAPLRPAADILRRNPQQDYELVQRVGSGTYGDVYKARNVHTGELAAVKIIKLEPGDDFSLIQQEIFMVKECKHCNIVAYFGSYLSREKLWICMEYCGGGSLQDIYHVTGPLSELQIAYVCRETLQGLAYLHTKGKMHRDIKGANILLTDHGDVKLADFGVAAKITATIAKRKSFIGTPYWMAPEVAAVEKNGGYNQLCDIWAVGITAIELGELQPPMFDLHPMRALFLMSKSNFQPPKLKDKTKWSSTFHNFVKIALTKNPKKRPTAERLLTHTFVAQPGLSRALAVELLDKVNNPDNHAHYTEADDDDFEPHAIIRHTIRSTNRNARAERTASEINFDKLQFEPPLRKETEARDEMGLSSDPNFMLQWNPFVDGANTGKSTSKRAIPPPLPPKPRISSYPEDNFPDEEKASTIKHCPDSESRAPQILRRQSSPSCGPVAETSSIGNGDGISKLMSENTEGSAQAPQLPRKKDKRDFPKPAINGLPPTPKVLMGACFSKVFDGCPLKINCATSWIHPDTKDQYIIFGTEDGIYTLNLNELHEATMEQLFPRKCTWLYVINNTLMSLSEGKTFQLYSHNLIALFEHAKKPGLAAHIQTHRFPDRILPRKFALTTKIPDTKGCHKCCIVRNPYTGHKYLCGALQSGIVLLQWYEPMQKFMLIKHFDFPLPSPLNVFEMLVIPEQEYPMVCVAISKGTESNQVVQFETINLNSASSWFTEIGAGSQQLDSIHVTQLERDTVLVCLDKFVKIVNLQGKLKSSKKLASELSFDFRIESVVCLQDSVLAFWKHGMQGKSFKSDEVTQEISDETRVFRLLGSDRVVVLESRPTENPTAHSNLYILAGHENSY
T1 sequence (Q13555 whole entry): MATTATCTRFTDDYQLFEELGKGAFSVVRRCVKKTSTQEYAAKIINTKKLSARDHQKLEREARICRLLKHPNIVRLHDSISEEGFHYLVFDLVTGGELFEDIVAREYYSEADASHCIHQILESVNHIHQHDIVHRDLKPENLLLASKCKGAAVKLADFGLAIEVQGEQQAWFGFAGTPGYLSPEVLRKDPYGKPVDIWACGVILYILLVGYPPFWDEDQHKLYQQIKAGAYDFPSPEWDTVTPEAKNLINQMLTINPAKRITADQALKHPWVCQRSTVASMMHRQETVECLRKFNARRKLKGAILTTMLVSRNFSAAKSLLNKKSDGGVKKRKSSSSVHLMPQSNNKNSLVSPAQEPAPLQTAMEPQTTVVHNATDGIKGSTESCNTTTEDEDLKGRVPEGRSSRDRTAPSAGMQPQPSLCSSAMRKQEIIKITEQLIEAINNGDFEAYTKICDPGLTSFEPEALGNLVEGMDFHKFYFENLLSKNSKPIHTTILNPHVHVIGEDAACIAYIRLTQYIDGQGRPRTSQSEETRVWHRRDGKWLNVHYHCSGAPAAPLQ
T12 sequence (Q02156 whole entry): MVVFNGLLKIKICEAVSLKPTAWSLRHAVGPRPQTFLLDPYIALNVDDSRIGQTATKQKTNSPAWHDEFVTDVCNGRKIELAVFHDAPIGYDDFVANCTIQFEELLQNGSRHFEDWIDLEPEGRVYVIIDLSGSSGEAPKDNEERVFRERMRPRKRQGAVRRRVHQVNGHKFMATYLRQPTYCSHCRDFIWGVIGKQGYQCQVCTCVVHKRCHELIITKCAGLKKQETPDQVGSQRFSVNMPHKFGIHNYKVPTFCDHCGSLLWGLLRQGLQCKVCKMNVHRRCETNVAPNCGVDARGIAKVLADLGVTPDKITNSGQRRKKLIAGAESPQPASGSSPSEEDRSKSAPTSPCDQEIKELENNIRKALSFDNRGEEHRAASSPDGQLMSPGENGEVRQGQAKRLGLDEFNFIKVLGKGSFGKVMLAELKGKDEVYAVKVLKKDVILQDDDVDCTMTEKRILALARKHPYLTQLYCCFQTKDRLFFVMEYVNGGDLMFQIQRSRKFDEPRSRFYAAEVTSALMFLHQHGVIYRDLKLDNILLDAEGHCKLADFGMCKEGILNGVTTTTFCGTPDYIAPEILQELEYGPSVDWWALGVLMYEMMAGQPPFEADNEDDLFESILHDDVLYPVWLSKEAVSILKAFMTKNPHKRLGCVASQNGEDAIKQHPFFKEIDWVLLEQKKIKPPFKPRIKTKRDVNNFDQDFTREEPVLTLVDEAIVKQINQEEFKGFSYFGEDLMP
T13 sequence (Q16288 32-839): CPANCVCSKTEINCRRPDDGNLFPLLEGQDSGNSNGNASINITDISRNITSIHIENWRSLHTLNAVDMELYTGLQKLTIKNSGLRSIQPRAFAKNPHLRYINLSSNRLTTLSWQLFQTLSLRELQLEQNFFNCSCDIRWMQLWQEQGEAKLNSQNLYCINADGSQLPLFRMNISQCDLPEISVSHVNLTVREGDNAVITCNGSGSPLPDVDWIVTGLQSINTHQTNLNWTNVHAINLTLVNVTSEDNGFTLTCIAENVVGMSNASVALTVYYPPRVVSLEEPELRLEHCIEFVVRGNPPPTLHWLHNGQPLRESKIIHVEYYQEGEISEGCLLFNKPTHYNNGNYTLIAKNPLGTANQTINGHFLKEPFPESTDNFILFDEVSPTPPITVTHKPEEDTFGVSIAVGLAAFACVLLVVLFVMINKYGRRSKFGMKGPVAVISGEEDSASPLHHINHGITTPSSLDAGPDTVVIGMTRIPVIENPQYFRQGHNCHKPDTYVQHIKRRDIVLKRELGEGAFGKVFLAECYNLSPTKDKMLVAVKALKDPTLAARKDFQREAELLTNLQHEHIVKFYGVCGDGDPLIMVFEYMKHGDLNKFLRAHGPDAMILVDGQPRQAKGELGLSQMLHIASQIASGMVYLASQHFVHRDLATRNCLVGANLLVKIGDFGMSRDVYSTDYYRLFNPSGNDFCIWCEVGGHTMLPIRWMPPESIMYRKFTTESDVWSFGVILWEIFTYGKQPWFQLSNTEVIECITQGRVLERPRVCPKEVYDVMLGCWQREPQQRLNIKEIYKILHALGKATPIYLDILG
T21 sequence (Q13237 whole entry): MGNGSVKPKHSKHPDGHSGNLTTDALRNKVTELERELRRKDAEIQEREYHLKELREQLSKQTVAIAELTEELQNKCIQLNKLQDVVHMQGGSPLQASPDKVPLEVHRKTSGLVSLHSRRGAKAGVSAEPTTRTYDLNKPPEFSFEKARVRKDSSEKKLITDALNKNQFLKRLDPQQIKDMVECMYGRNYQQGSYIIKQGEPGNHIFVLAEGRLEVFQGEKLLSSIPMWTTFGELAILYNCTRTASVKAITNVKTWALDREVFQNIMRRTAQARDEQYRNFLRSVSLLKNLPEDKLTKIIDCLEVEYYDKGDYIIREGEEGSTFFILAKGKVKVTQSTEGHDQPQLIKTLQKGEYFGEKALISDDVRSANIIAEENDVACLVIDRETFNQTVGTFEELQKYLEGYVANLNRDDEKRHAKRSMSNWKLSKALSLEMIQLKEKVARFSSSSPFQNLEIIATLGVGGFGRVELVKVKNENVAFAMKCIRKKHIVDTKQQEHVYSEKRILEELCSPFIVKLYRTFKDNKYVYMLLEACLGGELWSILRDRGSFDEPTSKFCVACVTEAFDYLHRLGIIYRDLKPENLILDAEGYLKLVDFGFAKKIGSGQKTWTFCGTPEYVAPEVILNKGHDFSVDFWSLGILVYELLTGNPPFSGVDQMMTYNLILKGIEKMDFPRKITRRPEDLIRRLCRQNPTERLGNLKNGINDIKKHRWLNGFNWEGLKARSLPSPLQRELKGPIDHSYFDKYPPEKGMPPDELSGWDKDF
T11 sequence (P49840 whole entry): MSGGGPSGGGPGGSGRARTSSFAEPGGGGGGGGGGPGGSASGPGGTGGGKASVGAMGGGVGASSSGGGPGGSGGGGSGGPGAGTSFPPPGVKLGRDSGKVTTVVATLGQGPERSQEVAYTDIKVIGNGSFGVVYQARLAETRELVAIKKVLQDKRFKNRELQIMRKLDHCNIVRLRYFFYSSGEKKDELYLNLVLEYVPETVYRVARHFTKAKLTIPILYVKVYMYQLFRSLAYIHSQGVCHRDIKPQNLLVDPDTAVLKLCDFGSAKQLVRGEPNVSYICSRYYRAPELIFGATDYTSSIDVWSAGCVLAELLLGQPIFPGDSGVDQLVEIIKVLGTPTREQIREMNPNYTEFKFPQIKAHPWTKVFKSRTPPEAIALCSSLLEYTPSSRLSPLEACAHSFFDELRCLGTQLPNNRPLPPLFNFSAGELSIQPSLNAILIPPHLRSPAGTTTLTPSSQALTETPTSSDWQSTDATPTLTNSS
T2 sequence (P27448 whole entry): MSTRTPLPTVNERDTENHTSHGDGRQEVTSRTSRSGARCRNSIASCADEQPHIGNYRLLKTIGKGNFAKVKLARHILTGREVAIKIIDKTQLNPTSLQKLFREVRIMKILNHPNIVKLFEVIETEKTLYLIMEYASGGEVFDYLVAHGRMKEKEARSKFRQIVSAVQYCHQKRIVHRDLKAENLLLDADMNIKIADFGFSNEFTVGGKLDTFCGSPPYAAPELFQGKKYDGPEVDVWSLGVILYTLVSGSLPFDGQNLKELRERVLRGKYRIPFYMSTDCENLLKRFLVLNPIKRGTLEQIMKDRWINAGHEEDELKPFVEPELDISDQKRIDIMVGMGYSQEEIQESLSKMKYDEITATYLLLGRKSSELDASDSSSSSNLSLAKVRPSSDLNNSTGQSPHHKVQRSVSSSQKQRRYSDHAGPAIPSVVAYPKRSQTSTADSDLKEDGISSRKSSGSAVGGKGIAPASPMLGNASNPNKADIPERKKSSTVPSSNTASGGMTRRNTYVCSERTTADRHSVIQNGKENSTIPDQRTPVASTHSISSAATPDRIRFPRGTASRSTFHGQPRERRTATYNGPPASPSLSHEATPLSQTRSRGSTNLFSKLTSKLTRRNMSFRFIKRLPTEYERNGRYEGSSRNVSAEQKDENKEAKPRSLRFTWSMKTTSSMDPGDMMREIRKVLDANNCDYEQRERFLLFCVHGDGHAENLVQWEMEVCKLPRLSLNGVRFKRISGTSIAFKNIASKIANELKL

SMILES	remaining activity at 0.1 µM [1] [%]	remaining activity at 0.1 µM [2] [%]	remaining activity at 0.1 µM [3] [%]	remaining activity at 0.1 µM [4] [%]	remaining activity at 0.1 µM [5] [%]	remaining activity at 0.1 µM [6] [%]	remaining activity at 0.1 µM [7] [%]	remaining activity at 0.1 µM [8] [%]	remaining activity at 0.1 µM [9] [%]	remaining activity at 0.1 µM [10] [%]	remaining activity at 0.1 µM [11] [%]	remaining activity at 0.1 µM [12] [%]	remaining activity at 0.1 µM [13] [%]	remaining activity at 0.1 µM [14] [%]	remaining activity at 0.1 µM [15] [%]	remaining activity at 0.1 µM [16] [%]	remaining activity at 0.1 µM [17] [%]	remaining activity at 0.1 µM [18] [%]	remaining activity at 0.1 µM [19] [%]	remaining activity at 0.1 µM [20] [%]	other results
CN1CCN(Cc2ccc(-c3cnc4[nH]cc(-c5ccc6[nH]ccc6c5)c4c3)cc2)CC1 [Compound 1, 3-(1H-Indol-5-yl)-5-(4-((4-methylpiperazin-1-yl)methyl)phenyl)-1H-pyrrolo[2,3-b]pyridine, reference compound]	110	83.2	104	108	84.1	114	97	97.2	95.3	31.4	84.8	110	19.4	102	109	58.8	94.8	95.3	102	106	remaining activity at 0.1 µM [21]: 93.8%; remaining activity at 0.1 µM [22]: 101%; remaining activity at 0.1 µM [23]: 99.1%; remaining activity at 0.1 µM [24]: 93.7%
OCCN1CCN(Cc2ccc(-c3cnc4[nH]cc(-c5cccc(Cl)c5)c4c3)cc2)CC1 [Compound 12k, 2-(4-(4-(3-(3-Chlorophenyl)-1H-pyrrolo[2,3-b]pyridin-5-yl)benzyl)piperazin-1-yl)ethan-1-ol]	110	46.6	103	96.6	73.1	110	96.8	84.2	96	1.81	91.6	98.6	52.2	102	101	17	103	91	97.1	96	fold change in KHS activity following 12k exposure relative to 1 ([10]; 0.025 μM): 17.36 fold; remaining activity at 0.1 µM [21]: 88.7%; remaining activity at 0.1 µM [22]: 103%; remaining activity at 0.1 µM [23]: 97.9%; remaining activity at 0.1 µM [24]: 82.2%
